How the values were obtained:
PPAR Delta = molecular target: T1, PPAR Delta (Homo sapiens, UniProt Q03181); test: PathHunter NHR protein interaction test, agonist mode, PPAR Delta; format: cell-based
T1 sequence (Q03181 1-441): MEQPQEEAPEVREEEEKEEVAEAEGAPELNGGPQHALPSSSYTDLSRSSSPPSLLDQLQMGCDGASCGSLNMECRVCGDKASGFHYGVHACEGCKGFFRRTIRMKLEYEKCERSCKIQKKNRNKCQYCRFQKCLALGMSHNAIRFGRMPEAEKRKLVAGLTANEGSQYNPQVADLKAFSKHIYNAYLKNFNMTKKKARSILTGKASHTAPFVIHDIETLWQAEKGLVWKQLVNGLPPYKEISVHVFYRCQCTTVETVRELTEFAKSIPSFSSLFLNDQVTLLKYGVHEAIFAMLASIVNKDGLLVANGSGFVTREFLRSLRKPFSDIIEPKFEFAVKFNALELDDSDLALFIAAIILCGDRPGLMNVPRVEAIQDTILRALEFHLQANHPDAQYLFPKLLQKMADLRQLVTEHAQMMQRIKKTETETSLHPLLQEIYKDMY
Text: (§1) Principles of in Vitro Test of PPAR Agonist Activity
(§2) Nuclear Hormone Receptor (NHR) Test
(§3) PathHunter's NHR protein interaction and nuclear transfer test are used to detect the activation ability of nuclear hormone receptor in a uniform, non-imaging experiment. This technology is called as enzyme fragment complementation […], and is developed by DiscoverX.
(§4) NHR protein test is based on the detection of the protein-protein interaction between a standard length of NHR protein in an activated state and a nuclear fusion protein containing a steroid receptor co-activating peptide (SRCP) region and one or more standard LXXLL acting sequences.
(§5) NHR is labeled on the ProLink™ component of an EFC test system, and the SRCP region and the enzyme receptor component (EA) are fused and expressed in the nucleus. When bound to the ligand, the NHR will transfer to the nucleus and obtain the SRCP region in which a complementary effect is produced, thereby generating an equivalent amount of activated-galactosidase (-Gal), accompanied by the generation of chemical light signals. The benefits associated with this pathway include reduced incubation time of the compound, direct test of an NHR target, use of human NHR sequences with a standard length, and selection of some new classes of compounds based on the disruption of protein-protein interactions.
(§6) The NHR NT test detected the transfer of an NHR between the cytoplasmic and nuclear compartments. The receptor was labeled on the ProLink™ component of the EFC test system, while the EA and nuclear sequence were fused, thereby limiting the expression of EA on the nucleus. Nucleus transfer leaded to the complementary effect with EA, thereby generating one equivalent of activated galactosidase (-Gal), accompanied by the generation of chemical light signals.
(§7) 1. PathHunter NHR cell strains were spread from a frozen stock in accordance with standard operations.
(§8) 2. Cells were seeded onto a 384-well white cell plate of 20 uL/well, and incubated at 37° C. for an appropriate time prior to test. The culture medium contained activated carbon dextran with filtered serum to reduce the level of hormone expression.
(§9) Experiments of Agonist Mode:
(§10) 1. As for the measurement of an agonist activity, it is required to incubate the cells with the compound to induce a response.
2. […]
(§11) 2. The chemiluminescence signals generated by the microplate were to be detected by a PerkinElmer Envision instrument.
(§12) 1. The activity of the compound was analyzed by CIBS data analysis software (ChemInnovation, CA).
(§13) 2. For experiments of agonist mode, the percentage activity is calculated by the following formula: % activity=100%×(the mean RLU of the compound to be tested−the mean background RLU of the medium)/(the mean of maximum control of the ligand−the mean background RLU of the medium)

PPAR Gamma = molecular target: T2, PPAR Gamma (Homo sapiens, UniProt P37231); test: PathHunter NHR protein interaction test, agonist mode, PPAR Gamma; format: cell-based
T2 sequence (P37231 1-505): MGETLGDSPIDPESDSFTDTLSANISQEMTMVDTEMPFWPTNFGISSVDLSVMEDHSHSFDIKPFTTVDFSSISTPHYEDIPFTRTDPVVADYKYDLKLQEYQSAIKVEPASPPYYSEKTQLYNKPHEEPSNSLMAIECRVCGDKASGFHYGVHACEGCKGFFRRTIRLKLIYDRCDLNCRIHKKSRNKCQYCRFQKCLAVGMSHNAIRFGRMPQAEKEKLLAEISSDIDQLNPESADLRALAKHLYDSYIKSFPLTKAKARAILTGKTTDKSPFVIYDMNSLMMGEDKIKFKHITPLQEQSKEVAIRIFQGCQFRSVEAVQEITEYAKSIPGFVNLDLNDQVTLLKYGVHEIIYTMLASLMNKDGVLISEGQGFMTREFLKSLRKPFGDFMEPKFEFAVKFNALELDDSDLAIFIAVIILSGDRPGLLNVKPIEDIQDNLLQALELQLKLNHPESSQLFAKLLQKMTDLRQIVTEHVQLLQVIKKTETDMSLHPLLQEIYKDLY
Text: as §1, §2, §3, §4, §5
The NHR NT test detected the transfer of an NHR between the cytoplasmic and nuclear compartments. […]
as §11, §12, §13

[1] = test system: CCl4-induced C57BL/6 mouse acute liver injury; test: CCl4-induced C57BL/6 mouse acute liver injury experiment; format: in vivo; conditions: no data shown
[2] = test system: MCD diet-induced db/db mouse NASH; test: MCD diet-induced db/db mouse NASH model; format: in vivo; conditions: no data shown
PPAR Alpha = molecular target: T3, PPAR Alpha (Homo sapiens, UniProt Q07869); test: PathHunter NHR protein interaction test, agonist mode, PPAR Alpha; format: cell-based
T3 sequence (Q07869 1-468): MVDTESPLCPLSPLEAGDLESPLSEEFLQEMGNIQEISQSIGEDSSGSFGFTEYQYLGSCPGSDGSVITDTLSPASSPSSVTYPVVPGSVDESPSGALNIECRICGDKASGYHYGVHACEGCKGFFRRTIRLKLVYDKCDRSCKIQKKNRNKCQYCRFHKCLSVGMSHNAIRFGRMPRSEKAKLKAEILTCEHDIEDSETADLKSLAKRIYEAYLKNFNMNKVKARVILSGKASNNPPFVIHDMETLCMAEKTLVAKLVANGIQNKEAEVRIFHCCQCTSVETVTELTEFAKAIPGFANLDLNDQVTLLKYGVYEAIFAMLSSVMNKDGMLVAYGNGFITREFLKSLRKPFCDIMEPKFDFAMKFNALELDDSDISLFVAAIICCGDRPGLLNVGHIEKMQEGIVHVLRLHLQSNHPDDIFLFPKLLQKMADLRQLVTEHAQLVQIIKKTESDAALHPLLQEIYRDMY
Text: as §1, §2, §3, §4, §5, §6, §7, §8, §9, §10
2. […]
as §11, §12, §13

EC50 (PPAR Delta; agonist mode): < 100 nM
activation effect on PPAR Delta receptor (PPAR Delta; summary of Table 5): significant activation effect
EC50 (PPAR Gamma; agonist mode): > 250 nM
activation effect on PPAR Gamma receptor (PPAR Gamma; summary of Table 5): selective activation effect
EC50 (PPAR Alpha; agonist mode): < 100 nM
activation effect on PPAR Alpha receptor (PPAR Alpha; summary of Table 5): significant activation effect
Structure (SMILES): CSc1ccc(C(=O)[C@@H]2CN(C(=O)Oc3ccccc3)C[C@H]2Cc2cc(C)c(OC(C)(C)C(=O)O)c(C)c2)cc1 [Compound of formula (I)]
effect on liver injury [1]: significantly improving effect
effect on NAS Score [2]: significantly improving effect
effect on liver fibrosis [2]: significantly improving effect
